Assay: In vitro test for inhibition of [125I]CCK binding to Cholecystokinin type B receptor from guinea pig cortical membranes was determined

Compound | IC50
Cc1cccc(NC(=O)NC2N=C(C3CCCC3)c3ccccc3N(C)C2=O)c1 (stereo not drawn) [1-(5-Cyclopentyl-1-methyl-2-oxo-2,3-dihydro-1H-benzo[e][1,4]diazepin-3-yl)-3-m-tolyl-urea] | 0.016 µM
Cc1cccc(NC(=O)NC2N=C(C3CCC3)c3ccccc3N(C)C2=O)c1 (stereo not drawn) [1-(5-Cyclobutyl-1-methyl-2-oxo-2,3-dihydro-1H-benzo[e][1,4]diazepin-3-yl)-3-m-tolyl-urea] | 0.03 µM
Cc1cccc(NC(=O)N[C@H]2N=C(C3CCCCC3)c3ccccc3N(C)C2=O)c1 [1-((S)-5-Cyclohexyl-1-methyl-2-oxo-2,3-dihydro-1H-benzo[e][1,4]diazepin-3-yl)-3-m-tolyl-urea] | 0.169 µM
